Source: patent US4382945A, “Tetrahydrothiepino[4,5-d]imidazole derivatives, composition and method of use” (Hoffmann-La Roche Inc., priority 1980, dated 1983)
Where a name gives a salt, the structure may show the parent alone.

Tests used:
[1] = test system: Human platelet-rich plasma (collagen-induced blood platelet aggregation); test: Collagen-induced blood platelet aggregation (aggregometer method of BORN); assay type: cell-based; conditions: 10 min; human citrated platelet-rich plasma; 37° C., 10 minutes incubation; collagen-fibrils; maximum aggregation velocity as test parameter
Protocol: Human platelet-rich plasma was obtained by centrifugation from citrated venous blood. The experiments were carried out with suspensions of the test substances in 0.9% sodium chloride. 0.18 ml of citrate plasma were treated with a 10 μl suspension of the test compounds and incubated at 37° C. for 10 minutes, whereupon the aggregation was initiated by the addition of 10 μl of a suspension of collagen-fibrils.

Plasma glucose = test: Antihyperglycemic activity: plasma glucose concentration after oral glucose load in fasted rats; assay type: in vivo; conditions: percentages of the controls, rats fasted 24 hours, 0.3 mmol/kg p.o., glucose 1.6 g/kg orally 100 minutes later, plasma 20 minutes after glucose, averages
Protocol: Gum arabic (12 control animals) or 0.3 mmol/kg p.o. of test substance (6 experimental animals) is administered to rats (fasted for 24 hours) and 100 minutes later a suspension of 1.6 g of glucose in 10 ml of 5 percent gum arabic is administered orally per kg body weight. The animals are killed 20 minutes after the glucose administration. Plasma is obtained from the heparinized mixed blood. The glucose concentration in the plasma is determined according to the hexokinase method.

| SMILES | EC50 [1] [µM] | Plasma glucose concentration (%) (Plasma glucose; listed as 2-Phenyl-4,5,7,8-tetrahydro-4,4,8,8-tetramethyl-1-H-thiepino-8 4,5-d]-imidazole , hydrochloride) | Plasma glucose concentration (%) (Plasma glucose) |
| --- | --- | --- | --- |
| CC1(C)CSCC(C)(C)c2[nH]c(-c3ccc4c(c3)OCO4)nc21 [2-(3,4-Methylenedioxyphenyl)-4,5,7,8-tetrahydro-4,4,8,8-tetramethyl-1-H-thiepino[4,5-d]imidazole hydrochloride] | 1.2 | – | – |
| CC1(C)CSCC(C)(C)c2[nH]c(-c3ccccc3)nc21 [2-phenyl-4,5,7,8-tetrahydro-4,4,8,8-tetramethyl-1-H-thiepino[4,5-d]imidazole] | – | – | 74 |
| CC1(C)CSCC(C)(C)c2[nH]c(-c3cccs3)nc21 [4,5,7,8-Tetrahydro-4,4,8,8-tetramethyl-2-(2-thienyl)-1-H-thiepino[4,5-d]-imidazole hydrochloride] | 19.7 | – | – |

More lines, main results first:

| EC50 [1] [µM] | SMILES | Plasma glucose concentration (%) (Plasma glucose; listed as 2-Phenyl-4,5,7,8-tetrahydro-4,4,8,8-tetramethyl-1-H-thiepino-8 4,5-d]-imidazole , hydrochloride) | Plasma glucose concentration (%) (Plasma glucose) |
| --- | --- | --- | --- |
| 0.8 | CC1(C)CSCC(C)(C)c2[nH]c(-c3ccccc3)nc21 [2-Phenyl-4,5,7,8-tetrahydro-4,4,8,8-tetramethyl-1-H-thiepino[4,5-d]-imidazole hydrochloride] | 67 | – |
| 4.2 | COc1ccc(-c2nc3c([nH]2)C(C)(C)CSCC3(C)C)cc1 [2-(p-Methoxyphenyl)-4,5,7,8-tetrahydro-4,4,8,8-tetramethyl-1-H-thiepino-[4,5-d]imidazole hydrochloride] | – | – |
| 4.7 | CC1(C)CSCC(C)(C)c2[nH]c(-c3ccc(F)cc3)nc21 [2-(p-Fluorophenyl)-4,5,7,8-tetrahydro-4,4,8,8-tetramethyl-1-H-thiepino-[4,5-d]imidazole hydrochloride] | – | 77 |
